Results taken from patent US10087242B2 (INSTITUT PASTEUR, priority 2007, dated 2018).

How the values were obtained:
Format in all cases: binding, mouse
[1] = tested on: mIgG G7-12; experiment: inhibition ELISA: oligosaccharide inhibits fixation of mIgG G7-12 on LPS 3a; conditions: concentration of oligosaccharide giving 50% inhibition of fixation of the mAb on LPS 3a (S. flexneri 3a)
Procedure: (§1) The oligosaccharide determinants recognized by the four mAbs obtained were characterized by measuring, by inhibition ELISA, the interaction of the various oligosaccharides synthesized with these mAbs.
(§2) 1) First, a standard curve OD=f(concentration of the mAb) was established for each antibody.
(§3) For this, purified LPS from S. flexneri 3a was fixed in the wells of ELISA plates (96-well plate), at a concentration of 25 μg/ml in a carbonate buffer pH 9.6, at 4° C., overnight.
(§4) After washing the wells with a solution of PBS/ Tween 20 (0.05%) 1% and a stage of saturation with PBS/BSA 1% for 30 minutes at 4° C., various concentrations of each mAb were incubated for 30 minutes at 4° C. After a washing stage, a secondary antibody coupled to alkaline phosphatase and specific to the mouse IgGs or IgMs was added at a dilution of 1/5000 (Sigma-Aldrich) for 1 h at 37° C. After washing, the enzymatic reaction was carried out with the specific substrate of alkaline phosphatase (12 mg of p-nitrophenylphosphate in 1.2 ml of Tris-HCl buffer 1M (pH 8.8) and 10.8 ml of 5M NaCl). Once the color reaction had developed, the plates were read at 405 nm (Dynatech MR 4000 plate reader). The standard curve OD =f(Ab concentration) was refined with the equation Y=aX2+bX+c, where Y corresponds to the OD and X to the antibody concentration. A correlation factor (r2) of 0.99 was generally obtained.
(§5) 2) The concentration of oligosaccharide capable of inhibiting 50% of the fixation of the mAb on LPS 3a was then determined as follows.
(§6) Each mAb was used at a given concentration, defined as the first concentration tested giving a maximum OD on the standard curve (the first point at the start of the plateau of the curve). Various concentrations of each of the oligosaccharides to be tested were then incubated separately with the mAb at constant concentration, overnight at 4° C., in 1% PBS-BSA buffer. Measurement of the free antibody concentration was carried out as stated above, after incubation of the mAb/oligosaccharide mixtures at 4° C. for 30 minutes on plates covered with LPS 3a and using the standard curve obtained in parallel on the same plate. For each mAb and each oligosaccharide, a value called IC50 was then calculated, corresponding to the concentration of oligosaccharide permitting 50% inhibition of the fixation of the mAb on LPS 3a.

[2] = tested on: mIgG C7-37; experiment: inhibition ELISA: oligosaccharide inhibits fixation of mIgG C7-37 on LPS 3a; conditions: concentration of oligosaccharide giving 50% inhibition of fixation of the mAb on LPS 3a (S. flexneri 3a)
Procedure: as §1, §2, §3, §4, §5, §6

[3] = tested on: IgM (G 19-2); experiment: inhibition ELISA: oligosaccharide inhibits fixation of IgM G19-2 on LPS 3a; conditions: concentration of oligosaccharide giving 50% inhibition of fixation of the mAb on LPS 3a (S. flexneri 3a), inhibition ELISA
Procedure: Protocol 2) Ten Balb/C mice and four BP2 mice were immunized by i.p. injection with virulent live bacteria of the strain S. flexneri 3a, every three weeks, using 2×10^6 bacteria for the first 2 immunizations and 5×10^6 for the next 4. As the anti-LPS 3a antibody response was too weak for performing cellular fusion, an additional series of 4 injections was carried out. Two mAbs of type IgM, G19-2 and L18-9, were obtained.
as §1, §2, §3, §4, §5, §6

Compound | IC50 [1] | IC50 [2] | IC50 [3]
Propyl (2/3-O-acetyl-α-L-rhamnopyranosyl)-(1→3)-(2-acetamido-2-deoxy-β-D-glucopyranosyl)-(1→2)-(α-D-glucopyranosyl-(1→3)-α-L-rhamnopyranoside [C(2-OAc)DEA-OPr] | > 2500 µM | > 5000 µM | > 2500 µM
CCCO[C@@H]1O[C@@H](C)[C@H](O)[C@@H](O[C@@H]2O[C@@H](C)[C@H](O)[C@@H](O)[C@H]2O[C@@H]2O[C@@H](C)[C@H](O)[C@@H](O[C@H]3O[C@H](CO)[C@@H](O)[C@H](O)[C@H]3O)[C@H]2O[C@@H]2O[C@H](CO)[C@@H](O)[C@H](O)[C@H]2NC(C)=O)[C@H]1O [DEABC)-OPr, Propyl (2-acetamido-2-deoxy-β-D-glucopyranosyl)-(1→2)-[α-D-glucopyranosyl-(1→3)]-α-L-rhamnopyranosyl-(1→2)-α-L-rhamnopyranosyl-(1→3)-α-L-rhamnopyranoside] | > 2500 µM | > 5000 µM | > 2500 µM
